Results from US7553837B2, “Phenylazole compounds production process and antioxidants” (Nippon Soda Co., Ltd., priority 2003, dated 2009).

Columns and labels:
[1] = test system: lipid peroxidation activity of each tissue homogenate (brain, heart and kidney); assay: Tissue migration properties: ex vivo lipid peroxidation inhibition in brain, heart and kidney homogenates; conditions: SD male rats, 100 mg/kg intraperitoneally, 30 minutes after administration
Procedure: An in vitro lipid peroxidation inhibition of the compounds of the present invention was evaluated by measuring a lipid peroxidation activity in a rat brain homogenate according to a process of Malvy, c., et al., Biochemical and Biophysical Research Communications, 1980, Vol. 95, p. 734-737. That is, a rat brain was extracted and a 5-fold amount of an aqueous phosphoric acid buffered saline solution (pH 7.4) (hereinafter abbreviated to PBS) was added to the brain under ice cooling, followed by homogenization using a Teflon homogenizer and further centrifugation at 10,000 g for 20 minutes to prepare a brain homogenate as a supernatant. To the brain homogenate thus prepared, 500 μM cysteine, 5 μM sulfuric acid monobasic iron and 100 mM KCl were added, followed by incubation at 37° C. for 30 minutes. Malondialdehyde produced by the […] of lipid peroxidation was measured by a thiobarbituric acid process.
Tissue migration properties of the compounds of the present invention were evaluated by measuring an ex vivo lipid peroxidation inhibition. A solution or suspension prepared by dissolving or suspending each of test compounds in an aqueous physiological saline solution or a 1% poly oxy ethylene hydrogenated castor oil (NIKKOL HCO-60, manufactured by Nikko Chemicals Co., Ltd.) physiological saline solution was intraperitoneally administered to SD male rats (one group: 3 rats, 6 weeks old) (available from Nippon SLC Co., Ltd.) at a dose of 100 mg/kg. 30 Minutes after administration, rats were bled to death by cutting the carotid artery and then the brain, heart and kidney were extracted. A lipid peroxidation activity of each tissue homogenate was measured by the process described in Example 18. An inhibition ratio in each tissue of the compounds of the present invention was determined from the amount of lipid peroxidation produced of a control group (physiological saline administration group) and a test compound administration group.

[2] = test system: lipid peroxidation in retina homogenate; assay: Retina migration properties: ex vivo retinal lipid peroxidation production inhibition; type: in vivo; conditions: SD male rats, retina taken after 30 minutes
Procedure: Retina migration properties of the compounds of the present invention were evaluated. To SD male rats (one group: 3 rats, 6 weeks old), a solution or suspension prepared by dissolving or suspending each of the test compounds in a 0.1N hydrochloric acid solution or a 1% poly oxy ethylene hydrogenated castor oil (NIKKOL HCO-60) solution was orally administered. After 30 minutes, both eyes were extracted and the retina was separated under ice cooling. A 5% homogenate solution of the retina was prepared in a 0.1M tris-hydrochloric acid buffer (pH 7.4) under ice cooling using a polytron homogenizer for a trace amount (NS-310E: manufactured by Nichion Irika Kiki Co., Ltd.) and, after autoxidation at 37° C. for one hour, the amount of lipid peroxidation produced was determined by a thiobarbituric acid process (MASUGI et al., vitamin 51, 21-29, 1977). A 30% inhibitory dose (ID30) was determined from the inhibition ratio at each dose. As is apparent from the results, the compounds of the present invention have an ex vivo retinal lipid peroxidation production inhibitory action and is also excellent in retina migration properties.

[3] = biological target: T1, 15-LO obtained from reticulocyte of rabbit (Oryctolagus cuniculus, UniProt P12530); assay: 15-lipoxygenase (15-LO) inhibitory activity, 15-HETE production; type: biochemical; conditions: 15-LO from reticulocyte of rabbit, linoleic acid
T1 construct: 15-LO obtained from reticulocyte of rabbit; from tissue; host or cells: rabbit reticulocytes
T1 sequence (P12530 1-663): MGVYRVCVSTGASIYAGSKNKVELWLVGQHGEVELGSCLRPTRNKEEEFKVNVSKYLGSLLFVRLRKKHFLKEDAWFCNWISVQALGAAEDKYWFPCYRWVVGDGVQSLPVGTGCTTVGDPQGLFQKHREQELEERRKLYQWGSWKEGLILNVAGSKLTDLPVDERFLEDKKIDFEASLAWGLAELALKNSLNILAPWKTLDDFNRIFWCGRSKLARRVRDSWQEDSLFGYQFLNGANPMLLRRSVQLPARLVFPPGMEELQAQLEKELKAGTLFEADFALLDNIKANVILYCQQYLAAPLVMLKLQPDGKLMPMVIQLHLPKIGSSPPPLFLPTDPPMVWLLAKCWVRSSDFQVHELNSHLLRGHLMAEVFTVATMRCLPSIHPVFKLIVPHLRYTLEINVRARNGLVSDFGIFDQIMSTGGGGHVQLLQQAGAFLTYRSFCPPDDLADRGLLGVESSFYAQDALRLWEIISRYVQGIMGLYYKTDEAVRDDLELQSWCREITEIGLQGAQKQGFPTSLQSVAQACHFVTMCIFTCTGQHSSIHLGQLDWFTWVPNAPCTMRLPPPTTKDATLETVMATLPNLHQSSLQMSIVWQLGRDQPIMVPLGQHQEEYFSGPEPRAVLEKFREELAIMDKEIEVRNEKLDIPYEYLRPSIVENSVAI
Procedure: A 15-LO inhibitory activity was measured by a partially modified process of a process of Auerbach et al. (Auerbach B. J, et al., Anal. Biochem.: 201, 375-80, 1992). That is, 15-LO obtained from reticulocyte of rabbit and each of test compounds dissolved in DMSO (final concentration: 1%) were preincubated (4° C., 15 minutes) in phosphoric acid buffer (pH 7.4) and 256 μM linoleic acid was further added, followed by incubation (4° C., 10 minutes). The amount of 15-HETE produced as a result of incubation was determined by spectrophotometry (OD660nm) and 50% production inhibitory concentration (μM) against 15-LO of each test compound was calculated. Compounds (R-3) and (R-4) (edaravone) of the following formulas were used as a control drug.

[4] = Acute oral toxicity, single oral dose, mortality rate after 7 days; conditions: mouse, in vivo, male mice, observed for 7 days
Procedure: A single dose of each of the compounds of the present invention was orally administered to male mice. After observing for 7 days, a mortality rate was determined.

Cc1c(C)c2c(c(C)c1N)CC(C)(CN1CCN(c3cccc(-n4ccnc4)c3)CC1)O2 (stereo not drawn) [Compound B-1-18]
Ex vivo lipid peroxidation inhibition inhibition ratio (%) Brain ([1]; brain homogenate): 77% | Ex vivo lipid peroxidation inhibition inhibition ratio (%) Heart ([1]; heart homogenate): 88% | Ex vivo lipid peroxidation inhibition inhibition ratio (%) Kidney ([1]; kidney homogenate): 89% | Lipid peroxidation inhibition 30% inhibitory concentration (ID30, oral administration) in ex vivo retina [2]: 12 mg/kg | IC50 [3]: 1540 nM | LD50 at 7 days [4]: > 1000 mg/kg
